In US20160368872A1, “COMPOUNDS AND METHODS FOR TREATING CANCERS” (HEALTH RESEARCH, INC., priority 2013, published 2016) one finds IC50 data, which are given here for 39 compounds.

What all share (test): inhibition of growth of cell lines (IC50 categories)
Common to all, as to format: cell-based

One assay concerns Hela. Conditions: Homo sapiens. How it is done:
(§1) This example provides a table (below) of the compounds of the present disclosure and their activity towards four different cell lines (i.e., CWR22R, Hela, PC3, and MDA-MB-231). The IC50 for inhibition of growth is divided into 4 categories: A<1 μM, B 1-5 μM, […], D>20 μM.
(§2) All compounds were tested for toxicity using 4 cells lines, target cells-CWR22R and non-target cells, Hela, PC3 and MDA-MB-231 (FIGS. 1A-F).

A further assay relates to CWR22R. The settings on record: Homo sapiens, 22Rv1. The procedure:
as §1, §2

The next assay has as its system PC3. Conditions: Homo sapiens, PC-3. The procedure:
as §1, §2

The next assay has as its system MDA-MB-231. The settings on record: Homo sapiens. How it is done: as §1, §2

One may read the IC50 as the concentration that inhibits the measured activity by half. In the case of `CCCn1c2ccccc2c2c3c(ccc21)C(=O)CC3` [Compound 1-1, 6-Propyl-1,2-dihydro-6H-cyclopenta[c]carbazol-3-one], the IC50 was greater than 20 µM in the assay on Hela, less than 1 µM with CWR22R, greater than 20 µM in the assay on PC3 and greater than 20 µM in the assay on MDA-MB-231.

Consider `Cn1c2ccccc2c2c3c(ccc21)C(=O)CC3` [Compound 1-3], for which the concentration for half-maximal inhibition (IC50) in the assay on Hela, in the assay with CWR22R, in the assay with PC3 and in the assay on MDA-MB-231 was 5 to 20 µM throughout.

As to `CCCn1c2ccccc2c2c3c(ccc21)C(=O)CCC3` [Compound 1-4], the IC50 in the assay with Hela was greater than 20 µM; with CWR22R it was less than 1 µM; in the assay with PC3 it was greater than 20 µM; in the assay with MDA-MB-231, greater than 20 µM.

Regarding `O=C1CCCc2c1ccc1c2c2ccccc2n1CCCF` [Compound 1-5], the IC50 with Hela was greater than 20 µM; in the assay with CWR22R, less than 1 µM; in the assay with PC3, greater than 20 µM; with MDA-MB-231, greater than 20 µM.

Consider `CCCn1c2ccccc2c2c3c(ccc21)C(=O)CO3` [Compound 1-6], for which the half-maximal inhibitory concentration (IC50) is greater than 20 µM with Hela, less than 1 µM in the assay with CWR22R, greater than 20 µM with PC3 and greater than 20 µM with MDA-MB-231.

Regarding `O=C1COc2c1ccc1c2c2ccccc2n1CCCF` [Compound 1-7], the IC50 with Hela is greater than 20 µM; with CWR22R it was less than 1 µM; in the assay on PC3, greater than 20 µM; with MDA-MB-231 it was greater than 20 µM.

With `CCCn1c2ccccc2c2c3c(ccc21)C(=O)CCO3` [Compound 1-8], the half-inhibitory concentration (IC50) was greater than 20 µM in the assay with Hela, less than 1 µM in the assay on CWR22R, greater than 20 µM with PC3 and greater than 20 µM in the assay on MDA-MB-231.

On to `O=C1CCOc2c1ccc1c2c2ccccc2n1CCCF` [Compound 1-9], for which the half-maximal inhibitory concentration (IC50) with Hela is greater than 20 µM; in the assay on CWR22R, less than 1 µM; with PC3, greater than 20 µM; in the assay on MDA-MB-231, greater than 20 µM.

`CCCn1c2ccccc2c2c3c(ccc21)C(=O)NC3` [Compound 1-10, 6-propyl-1,2-dihydro-6H-pyrrolo[3,4-c]carbazol-3-one]: the 50% inhibitory concentration (IC50) with Hela was greater than 20 µM; in the assay with CWR22R, less than 1 µM; with PC3, greater than 20 µM; in the assay with MDA-MB-231, greater than 20 µM.

`O=C1NCc2c1ccc1c2c2ccccc2n1CCCF` [Compound 1-11]: the IC50 with Hela was greater than 20 µM; with CWR22R, less than 1 µM; with PC3 it was greater than 20 µM; in the assay on MDA-MB-231, greater than 20 µM.

Consider `O=C1Cc2ccc3c(c2CN1)c1ccccc1n3CCCF` [Compound 1-12], for which the IC50 is greater than 20 µM in the assay on Hela, less than 1 µM with CWR22R, greater than 20 µM with PC3 and greater than 20 µM in the assay on MDA-MB-231.

Take `O=C1CCc2c1ccc1c2c2c(F)cccc2n1CCCF` [Compound 1-14]: the half-maximal inhibitory concentration (IC50) in the assay with Hela is greater than 20 µM; in the assay with CWR22R, less than 1 µM; in the assay on PC3, greater than 20 µM; with MDA-MB-231, greater than 20 µM.

As to `CC(=O)c1ccc2c(c1)c1c3c(ccc1n2CCCF)C(=O)CC3` [Compound 1-15], the 50% inhibitory concentration (IC50) is greater than 20 µM in the assay with Hela, 1 to 5 µM with CWR22R, greater than 20 µM in the assay with PC3 and greater than 20 µM in the assay on MDA-MB-231.

Regarding `O=C1CCc2c1ccc1c2c2cc(Br)ccc2n1CCCF` [Compound 1-16], the IC50 in the assay on Hela was greater than 20 µM; in the assay with CWR22R it was 1 to 5 µM; in the assay with PC3 it was greater than 20 µM; with MDA-MB-231, greater than 20 µM.

In the case of `CCCn1c2ccccc2c2c3c(ccc21)C(=O)NCC3` [Compound 2-1, 7-Propyl-2,3-dihydro-1H,7H-pyrido[3,4-c]carbazol-4-one], the IC50 in the assay with Hela is greater than 20 µM; in the assay with CWR22R, less than 1 µM; with PC3, greater than 20 µM; in the assay on MDA-MB-231 it was greater than 20 µM.

Consider `O=C1NCCc2c1ccc1c2c2ccccc2n1CCCF` [Compound 2-2], for which the half-maximal inhibitory concentration (IC50) was greater than 20 µM in the assay on Hela, less than 1 µM in the assay with CWR22R, greater than 20 µM with PC3 and greater than 20 µM in the assay on MDA-MB-231.

Consider `O=C1NCCCc2c1ccc1c2c2ccccc2n1CCCF` [Compound 2-3], for which the concentration for half-maximal inhibition (IC50) with Hela is 5 to 20 µM; in the assay with CWR22R, 1 to 5 µM; in the assay with PC3 it was greater than 20 µM; with MDA-MB-231 it was 5 to 20 µM.

For `O=C1CCCc2c(ccc3c2c2ccccc2n3CCCF)N1` [Compound 2-4], the concentration for half-maximal inhibition (IC50) with Hela was 5 to 20 µM; in the assay with CWR22R, less than 1 µM; in the assay with PC3 it was 5 to 20 µM; in the assay on MDA-MB-231 it was greater than 20 µM.

For the compound `O=C1NCCOc2c1ccc1c2c2ccccc2n1CCCF` [Compound 2-5], the 50% inhibitory concentration (IC50) is greater than 20 µM in the assay on Hela, less than 1 µM with CWR22R, greater than 20 µM with PC3 and greater than 20 µM with MDA-MB-231.

In the case of `CCCn1c2ccccc2c2c3cc[nH]c(=O)c3ccc21` [Compound 3-1, 7-Propyl-3H,7H-pyrido[3,4-c]carbazol-4-one], the IC50 is greater than 20 µM in the assay with Hela, less than 1 µM with CWR22R, greater than 20 µM in the assay on PC3 and greater than 20 µM in the assay on MDA-MB-231.

As for `O=c1[nH]ccc2c1ccc1c2c2ccccc2n1CCCF` [Compound 3-2], the half-inhibitory concentration (IC50) in the assay with Hela was greater than 20 µM; with CWR22R, less than 1 µM; in the assay with PC3, greater than 20 µM; in the assay with MDA-MB-231, greater than 20 µM.

As to `CCCn1c2ccccc2c2c3occc(=O)c3ccc21` [Compound 3-3], the IC50 with Hela was greater than 20 µM; in the assay with CWR22R, less than 1 µM; in the assay with PC3, greater than 20 µM; with MDA-MB-231, 5 to 20 µM.

As to `CCCn1c2ccccc2c2c3c(ccc21)C(=O)N(C)C3` [Compound 4-1, 2-Methyl-6-propyl-1,2-dihydro-6H-pyrrolo[3,4-c]carbazol-3-one], the half-inhibitory concentration (IC50) in the assay with Hela was 1 to 5 µM; in the assay with CWR22R, less than 1 µM; with PC3, greater than 20 µM; in the assay on MDA-MB-231, less than 1 µM.

Take `CN1Cc2c(ccc3c2c2ccccc2n3CCCF)C1=O` [Compound 4-2]: the IC50 in the assay on Hela was 5 to 20 µM; in the assay with CWR22R, less than 1 µM; in the assay with PC3, greater than 20 µM; in the assay on MDA-MB-231 it was 1 to 5 µM.

With `O=c1c2ccc3c(c2ccn1CCO)c1ccccc1n3CCCF` [Compound 4-3], the 50% inhibitory concentration (IC50) was greater than 20 µM with Hela, 5 to 20 µM in the assay with CWR22R, greater than 20 µM in the assay with PC3 and greater than 20 µM with MDA-MB-231.

As for `O=c1c2ccc3c(c2ccn1CCN1CCCC1)c1ccccc1n3CCCF` [Compound 4-4], the concentration for half-maximal inhibition (IC50) in the assay with Hela, in the assay on CWR22R, in the assay on PC3 and with MDA-MB-231 was 5 to 20 µM in each case.

Consider `CCCn1c2ccccc2c2c3nc[nH]c(=O)c3ccc21` [Compound 5-1, 7-Propyl-3H-pyrimido[5,4-c]carbazol-4(7H)-one], for which the results for the IC50 in the assay on Hela, with CWR22R and in the assay on MDA-MB-231 were greater than 20 µM, less than 1 µM and greater than 20 µM, respectively.

In the case of `O=c1[nH]cnc2c1ccc1c2c2ccccc2n1CCCF` [Compound 5-2], the IC50 in the assay with Hela was greater than 20 µM; with CWR22R it was less than 1 µM; with PC3, greater than 20 µM; in the assay on MDA-MB-231, greater than 20 µM.

For the compound `O=c1[nH]ncc2c1ccc1c2c2ccccc2n1CCCF` [Compound 5-3], the IC50 with Hela is greater than 20 µM; in the assay with CWR22R it was less than 1 µM; in the assay on PC3 it was greater than 20 µM; in the assay on MDA-MB-231, greater than 20 µM.

On to `CCCn1c2ccccc2c2c3c(ccc21)CC(=O)N3C` [Compound 6-1, 1-Methyl-6-propyl-3,6-dihydro-1H-pyrrolo[3,2-c]carbazol-2-one], for which the IC50 with Hela is greater than 20 µM; in the assay on CWR22R, less than 1 µM; in the assay on PC3, greater than 20 µM; with MDA-MB-231 it was greater than 20 µM.

For the compound `CCCn1c2ccccc2c2c3c(ccc21)C(O)CC3` (centres unmarked) [Compound 7-1, 6-Propyl-1,2,3,6-tetrahydro-cyclopenta[c]carbazol-3-ol], the IC50 is 5 to 20 µM with Hela, less than 1 µM in the assay with CWR22R, 5 to 20 µM in the assay with PC3 and 5 to 20 µM in the assay with MDA-MB-231.

On to `CCCn1c2ccccc2c2c3c(ccc21)CCC3` [Compound 7-2, 6-Propyl-1,2,3,6-tetrahydro-cyclopenta[c]carbazole], for which the IC50 with Hela is greater than 20 µM; in the assay on CWR22R, 1 to 5 µM; with PC3, greater than 20 µM; in the assay on MDA-MB-231, greater than 20 µM.

For the compound `O=c1[nH]c2ccc3c(c4ccccc4n3CCCF)c2o1` [Compound 8-2], the IC50 in the assay with Hela was 5 to 20 µM; in the assay on CWR22R, less than 1 µM; with PC3 it was greater than 20 µM; with MDA-MB-231, 5 to 20 µM.

`N#Cc1cccc2c1c1c3cc[nH]c(=O)c3ccc1n2CCCF` [Compound 8-3]: the IC50 was greater than 20 µM in the assay with Hela, 1 to 5 µM in the assay with CWR22R, greater than 20 µM in the assay with PC3 and greater than 20 µM with MDA-MB-231.

Turning to `NC(=O)c1cccc2c1c1c3cc[nH]c(=O)c3ccc1n2CCCF` [Compound 8-4], the IC50 in the assay with Hela is greater than 20 µM; with CWR22R, 5 to 20 µM; in the assay on PC3 it was greater than 20 µM; in the assay with MDA-MB-231 it was greater than 20 µM.

In the case of `CCCn1c2cccnc2c2c3c(ccc21)C(=O)CC3` [Compound 10-1, 6-Propyl-1,2-dihydro-6H-6,10-diazacyclopenta[c]fluoren-3-one], the 50% inhibitory concentration (IC50) is greater than 20 µM in the assay on Hela, 1 to 5 µM with CWR22R, 5 to 20 µM with PC3 and 5 to 20 µM in the assay on MDA-MB-231.

Regarding `O=C1CCc2c1ccc1c2c2ncccc2n1CCCF` [Compound 10-2], the 50% inhibitory concentration (IC50) is greater than 20 µM with Hela, less than 1 µM in the assay on CWR22R, 5 to 20 µM in the assay with PC3 and 5 to 20 µM in the assay on MDA-MB-231.

For `CCCn1c2cccnc2c2c3c(ccc21)C(=O)NC3` [Compound 10-5], the IC50 in the assay on Hela is greater than 20 µM; with CWR22R it was 1 to 5 µM; in the assay on PC3, greater than 20 µM; with MDA-MB-231 it was greater than 20 µM.

Consider `O=C1NCc2c1ccc1c2c2ncccc2n1CCCF` [Compound 10-6, 6-(3-fluoropropyl)-1,2-dihydro-6H-2,6,10-triazacyclopenta[c]fluoren-3-one], for which the IC50 was greater than 20 µM in the assay on Hela, less than 1 µM in the assay with CWR22R, greater than 20 µM in the assay with PC3 and greater than 20 µM in the assay on MDA-MB-231.
